Results taken from ChEMBL document CHEMBL1151650, “New Furostanol Glycosides from Asparagus plumosus Leaves” (J Nat Prod, 1985).

Tested on: Biomphalaria glabrata
Test: Toxic molluscicidal activity against Biomphalaria glabrata
Format: ADME, organism-based
Conditions: in vivo

| Structure (SMILES) | Activity |
| --- | --- |
| CO[C@]1(CC[C@H](C)CO[C@@H]2O[C@H](CO)[C@@H](O)[C@H](O)[C@H]2O)O[C@H]2C[C@H]3[C@@H]4CC=C5C[C@@H](O[C@@H]6O[C@H](CO)[C@@H](O)[C@H](O[C@@H]7O[C@@H](C)[C@H](O)[C@@H](O)[C@H]7O)[C@H]6O[C@@H]6O[C@@H](C)[C@H](O)[C@@H](O)[C@H]6O)CC[C@]5(C)[C@H]4CC[C@]3(C)[C@H]2[C@@H]1C | Non-toxic |
| C[C@@H](CC[C@@]1(O)O[C@H]2C[C@H]3[C@@H]4CC=C5C[C@@H](O[C@@H]6O[C@H](CO)[C@@H](O)[C@H](O[C@@H]7O[C@@H](C)[C@H](O)[C@@H](O)[C@H]7O)[C@H]6O[C@@H]6O[C@@H](C)[C@H](O)[C@@H](O)[C@H]6O)CC[C@]5(C)[C@H]4CC[C@]3(C)[C@H]2[C@@H]1C)CO[C@@H]1O[C@H](CO)[C@@H](O)[C@H](O)[C@H]1O | Non-toxic |
